Measurements: the supplement of paper PMC10307832

Columns and labels:
Experiment in all cases: relative viability (nuclei count vs DMSO), 5 days (fraction); higher = more cells survive
kb NB 142-70 + Lapatinib = compound: C1CSC2=C(C(=O)N1)SC3=C2C=C(C=C3)O [kb NB 142-70] + CS(=O)(=O)CCNCc1ccc(-c2ccc3ncnc(Nc4ccc(OCc5cccc(F)c5)c(Cl)c4)c3c2)o1 [Lapatinib] (partner 2 µM)
Procedure, shortened: (§1)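 Lung cancer cell lines in 1536-well plates were dosed by pin tool the day after seeding, either with one drug alone or with a fixed anchor-drug dose plus five library-drug doses (not always all listed) in √10 steps. After 5 days, cells were fixed and their nuclei stained in one step (final 0.05% Triton X-100, 1% formaldehyde, 1 ug/ml Hoechst), then counted on 4× images. Relative viability is the nuclei count in treated wells divided by that in vehicle wells. Values are medians of duplicate plates.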

[1] = compound: NCC(=O)Nc1ccc(-n2nc(C(F)(F)F)cc2-c2ccc3c(ccc4ccccc43)c2)cc1 + CCNC(=O)c1noc(-c2cc(C(C)C)c(O)cc2O)c1-c1ccc(CN2CCOCC2)cc1 [Luminespib] (partner 0.01 µM)
Procedure, shortened: as §1

[2] = compound: NCC(=O)Nc1ccc(-n2nc(C(F)(F)F)cc2-c2ccc3c(ccc4ccccc43)c2)cc1 + Cc1nc(Nc2ncc(C(=O)Nc3c(C)cccc3Cl)s2)cc(N2CCN(CCO)CC2)n1 [Dasatinib] (partner 0.075 µM)
Procedure, shortened: as §1

[3] = compound: NCC(=O)Nc1ccc(-n2nc(C(F)(F)F)cc2-c2ccc3c(ccc4ccccc43)c2)cc1 + NC(=O)Nc1cc(-c2cccc(F)c2)sc1C(=O)N[C@H]1CCCNC1 [AZD7762] (partner 0.2 µM)
Procedure, shortened: as §1

Row | Cell Line | relative viability (kb NB 142-70 + Lapatinib; first compound 0.1 µM) | relative viability (kb NB 142-70 + Lapatinib; first compound 1 µM) | relative viability (kb NB 142-70 + Lapatinib; first compound 3.162 µM) | relative viability ([1]; first compound 0.02 µM) | relative viability ([1]; first compound 0.06325 µM) | relative viability ([1]; first compound 0.2 µM) | relative viability ([1]; first compound 0.6325 µM) | relative viability ([1]; first compound 2 µM) | relative viability ([2]; first compound 0.02 µM) | relative viability ([2]; first compound 0.06325 µM) | relative viability ([2]; first compound 0.2 µM) | relative viability ([2]; first compound 0.6325 µM) | relative viability ([2]; first compound 2 µM) | relative viability ([3]; first compound 0.02 µM) | relative viability ([3]; first compound 0.06325 µM) | relative viability ([3]; first compound 0.2 µM) | relative viability ([3]; first compound 0.6325 µM) | relative viability ([3]; first compound 2 µM)
1 | LOU-NH91 | 0.724 | 0.73 | 0.581 | 0.334 | 0.38 | 0.314 | 0.339 | 0.352 | 0.577 | 0.601 | 0.536 | 0.558 | 0.541 | 0.799 | 0.783 | 0.784 | 0.804 | 0.795
2 | LU99A | 0.977 | 0.858 | 0.71 | 0.261 | 0.249 | 0.229 | 0.238 | 0.19 | 0.505 | 0.602 | 0.538 | 0.598 | 0.347 | 0.333 | 0.387 | 0.389 | 0.341 | 0.355
3 | LXF-289 | 0.917 | 0.909 | 0.94 | 0.686 | 0.67 | 0.633 | 0.637 | 0.702 | 0.188 | 0.246 | 0.315 | 0.218 | 0.241 | 1.14 | 1.13 | 1.01 | 1.12 | 1.06
4 | NCI-H23 | 1.23 | 0.872 | 0.413 |  | 0.217 | 0.216 | 0.222 | 0.234 | 0.885 | 0.781 | 0.825 | 0.73 | 0.832 | 0.191 | 0.249 | 0.219 | 0.274 | 0.277
5 | NCI-H322M | 0.568 | 0.646 | 0.617 | 0.919 | 0.946 | 0.895 | 0.917 | 0.855 | 0.268 | 0.266 | 0.251 | 0.271 | 0.261 | 0.569 | 0.711 | 0.578 | 0.636 | 0.681
6 | NCI-H358 | 0.45 | 0.396 | 0.161 | 0.316 | 0.54 | 0.37 | 0.323 | 0.259 | 0.165 | 0.138 | 0.153 | 0.173 | 0.189 | 0.535 | 0.593 | 0.607 | 0.609 | 0.526
7 | NCI-H460 | 1.02 | 1.03 | 0.48 | 0.032 | 0.0402 | 0.0319 | 0.0282 | 0.0345 | 0.425 | 0.597 | 0.543 | 0.494 | 0.547 | 0.773 | 0.684 | 0.633 | 0.623 | 0.643
8 | NCI-H596 | 1.02 | 0.931 | 0.884 | 1.14 | 1.02 | 1.06 | 0.99 | 0.978 | 0.626 | 0.66 | 0.591 | 0.6 | 0.652 | 1.14 | 1.03 | 0.984 | 1.28 | 1.08
9 | NCI-H647 | 1.11 | 1.08 | 0.836 | 0.26 | 0.151 | 0.146 | 0.181 | 0.252 | 0.205 | 0.167 | 0.227 | 0.193 | 0.208 | 0.384 | 0.39 | 0.524 | 0.431 | 0.527
10 | NCI-H650 | 1.05 | 1.17 | 0.657 | 0.725 | 0.878 | 0.867 | 0.734 | 0.973 | 0.4 | 0.479 | 0.434 | 0.377 | 0.459 | 0.988 | 1.12 | 1.08 | 1.02 | 1.05
11 | NCI-H727 | 0.808 | 1.03 | 0.905 | 0.325 | 0.352 | 0.322 | 0.32 | 0.401 | 0.375 | 0.365 | 0.347 | 0.467 | 0.345 | 0.531 | 0.53 | 0.58 | 0.696 | 0.599
12 | NCI-H838 | 0.934 | 0.913 | 1.03 | 0.328 | 0.31 | 0.372 | 0.429 | 0.382 | 0.233 | 0.305 | 0.273 | 0.302 | 0.285 | 1.01 | 0.922 | 0.986 | 0.913 | 0.957
13 | NCI-H1355 | 0.993 | 0.943 | 1.07 | 0.668 | 0.765 | 0.72 | 0.791 | 0.752 | 0.664 | 0.813 | 0.723 | 0.754 | 0.756 | 0.717 | 0.776 | 0.797 | 0.776 | 0.806
14 | NCI-H1395 | 1.23 | 1.14 | 0.816 | 0.615 | 0.78 | 0.678 | 0.655 | 0.617 | 0.442 | 0.422 | 0.358 | 0.444 | 0.39 | 0.373 | 0.421 | 0.37 | 0.407 | 0.38
